# Assay results: publication PMC6505199, “In vitro characterization of odorranalectin for peptide-based drug delivery across the blood–brain barrier” (BMC Neuroscience, 2019)
# What was measured:
# mice = system: mice; set-up: method as in PMID 18584053; details: cited from earlier work
# [1] = BSA-conjugated monosaccharides and cell-based assays; relative to L-fucose; cited from earlier work
# Source text: Previous studies reported the potential of lectins as drug carriers to specific sites of action based on their ability to selectively bind to specific sugar moieties of targeted cells. In addition, lectins could promote drug targeting into or across the cell barriers through vesicular transport. […] As also shown in Fig. 4, it is quite evident that the internalized OL is stable at all concentration tested further supporting the notion that this peptide is likely internalized into the cellular endosome but not the lysosomes.
# [2] = set-up: method as in PMID 18584053; details: cited from earlier work
# hCMEC/D3 cells = test: Cellular uptake/internalization of FAM-labelled peptide (lysate fluorescence normalized to protein; fluorescence imaging); type: in vitro ADME, human; details: 3 h
# Method: All experiments were performed on human brain microvascular endothelial cell line (hCMEC/D3; Millipore Sigma, Massachusetts, US, cat# SCC066), an established and well characterized model of human BBB in vitro [11, 15, 16]. Cells (2.5 × 10^3/cm^2; passages 29–32) were cultured on sterile flasks, 96-well plates (for cell viability) and chamber slides (for immunofluorescence imaging) previously coated with Matrigel in HEPES buffered basal endothelial medium (EBM2) supplemented with various growth factors and 5% FBS using Lonza EGM2 MV BulletKit™ [15]. Following 80–90% confluence, cells were subjected to experimental conditions as listed below with serum concentration reduced to 1% FBS. Culture medium’s composition was adjusted (EBM2 medium buffered with HEPES and 1% BSA with no growth factors) to determine the effects of pH and serum (%; protein binding) on the cellular uptake of FAM-OL peptide. Basic pH was maintained with addition of 1 N sodium hydroxide to the medium, while acidic pH was established by addition of phosphoric acid. Cells were lysed with RIPA buffer at the end of treatment with OL peptide and the florescence intensity was measured using BioTek Synergy2 Multimode microplate reader using cellular lysates from cells treated with 0.1% DMSO as controls at 490/520 nm. […]
substance,measurement,setting,value
odorranalectin [OL],Toxicity profile in mice,mice,low toxicity profile
same,Binding to N-acetyl-d-galactosamine,[1],to a lesser degree
same,Binding to galactose,[1],to a lesser degree
same,Immunogenicity,[2],low immunogenicity
same,Concentration dependence of cellular uptake,"hCMEC/D3 cells; hCMEC/D3, 10-100 µg/mL, 37 °C, media 1% FBS, 0.1% DMSO, fluorescence imaging / lysate fluorescence 490/520 nm normalized per µg protein (BCA), N = 4-5",increased linearly
same,Cellular uptake compared to scramble peptide at identical concentrations,"hCMEC/D3 cells; hCMEC/D3, 37 °C, 1% FBS, total cell lysate fluorescence normalized per µg protein, side by side, P < 0.01",two to threefolds higher
